Test results from patent publication US20250084091A1, “INHIBITORS OF SARS-COV-2” (The Texas A&M University System, priority 2021, published 2025).
Like-named read-outs stand apart in the source and are kept apart here.

What was measured:
[1] = Uninfected host cell cytotoxicity counter screen; type: cell-based; conditions: human
How it was run: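 HeLa-ACE2 cells, uninfected, seeded at 400 cells/well with compounds and held 24 hours at 37° C., 5% CO2. Dead cells stained with Image-iT DEAD green, fixed in 4% paraformaldehyde, DAPI-counterstained and imaged. Data normalized to DMSO and 40 μM puromycin controls; concentration responses in triplicate.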

[2] = system: SARS-CoV-2 (strain USA-WA1/2020); test: microbe, parasite or virus in culture; type: cell-based
[3] = molecular target: SARS-CoV-2 main protease (Mpro) (Severe acute respiratory syndrome coronavirus 2, UniProt P0DTD1); test: biochemical
HeLa-ACE2 cells = test: cells; type: cell-based; conditions: Table 2, total cell count in infected plates
[4] = Severe acute respiratory syndrome coronavirus 2, Table 2, SARS-CoV-2 infected HeLa-ACE2 cells, read-out: CoV-2 HeLa EC50
[5] = Table 2, uninfected cells, 24 hours, read-out: Uninfected HeLa-ACE2 CC50
[6] = Severe acute respiratory syndrome coronavirus 2, HeLa-ACE2, read-out: CoV-2 HeLa EC50, Table 2, SARS-CoV-2 infected HeLa-ACE2 cells

SMILES	CC50 at 24 h [1]	EC50 [2, 4]	IC50 ([3]; Table 2, read-out: Enzyme IC50)	EC50 (HeLa-ACE2 cells)	CC50 at 24 h [1, 5]	EC50 [2, 6]	IC50 ([3]; Enzyme IC50, Table 2)	EC50 ([2]; Severe acute respiratory syndrome coronavirus 2, HeLa, read-out: CoV-2 HeLa EC50, Table 3)	IC50 ([3]; Enzyme IC50, Table 3, select example compounds against mpro)	EC50 ([2]; Severe acute respiratory syndrome coronavirus 2, HeLa, Table 3, read-out: CoV-2 HeLa EC50)	IC50 ([3]; Table 3, select example compounds against mpro, read-out: Enzyme IC50)
O=C(c1cncc(F)c1)N1CCN(C(c2ccccc2)c2cccnc2)CC1 (stereo not drawn) [MKP-1192, 1-(5-fluoropyridine-3-carbonyl)-4-[phenyl(pyridin-3-yl)methyl]piperazine]	> 39800 nM	4830 nM	1930 nM	> 9610 nM	–	–	–	–	–	–	–
COC(=O)c1cncc(C(=O)N2CCN(C3c4ccccc4CCc4ccccc43)CC2)c1 [ZS-338, methyl 5-[4-(2-tricyclo[9.4.0.03,8]pentadeca-1(11),3(8),4,6,12,14-hexaenyl)piperazine-1-carbonyl]pyridine-3-carboxylate]	> 39800 nM	7070 nM	> 1000 nM	> 9610 nM	–	–	–	–	–	–	–
O=C(c1cncc2nc[nH]c12)N1CCN(C2c3ccccc3CS(=O)(=O)c3ccccc32)CC1 (stereo not drawn) [NZ-810, [4-(5,5-dioxo-6,11-dihydrobenzo[c][1]benzothiepin-11-yl)piperazin-1-yl]-(1H-imidazo[4,5-c]pyridin-7-yl)methanone]	> 39800 nM	482 nM	75 nM	434 nM	–	–	–	–	–	–	–
O=C1CC(C(=O)N2CCN(C(c3ccccc3)c3ccccc3)CC2)c2ccccc2N1 (stereo not drawn) [ZS-325, 4-(4-benzhydrylpiperazine-1-carbonyl)-3,4-dihydro-1H-quinolin-2-one]	> 39800 nM	5680 nM	1510 nM	> 9610 nM	–	–	–	–	–	–	–
O=C(c1cncc(Cl)c1)N1CCC(C(O)(c2ccccc2)c2ccccc2)CC1 [NZ-779, [1-(5-chloropyridine-3-carbonyl)piperidin-4-yl]diphenylmethanol]	> 39800 nM	710 nM	370 nM	> 9610 nM	–	–	–	–	–	–	–
O=C(c1cncc(F)c1)N1CCN(C(c2ccccc2)c2ccccc2)CC1 [AA-592, (4-benzhydrylpiperazin-1-yl)(5-fluoropyridin-3-yl)methanone]	> 39800 nM	2720 nM	970 nM	> 9610 nM	–	–	–	–	–	–	–
O=C(c1cncc2nc[nH]c12)N1CC2CCC(C1)N2C(c1ccccc1)c1ccccc1 [AA-642, (8-benzhydryl-3,8-diazabicyclo[3.2.1]octan-3-yl)(1H-imidazo[4,5-c]pyridin-7-yl)methanone]	–	–	–	3240 nM	> 39800 nM	1050 nM	210 nM	–	–	–	–
O=C(c1cncnc1)N1CCN(C(c2ccccc2)c2ccccc2)CC1 [AA-577, (4-benzhydrylpiperazin-1-yl)(pyrimidin-5-yl)methanone]	> 39800 nM	8510 nM	8300 nM	> 9610 nM	–	–	–	–	–	–	–
N#Cc1cncc(C(=O)N2CCN(C(c3ccccc3)c3ccccc3)CC2)c1 [MKP-1230, 5-[4-(diphenylmethyl)piperazine-1-carbonyl]pyridine-3-carbonitrile]	> 39800 nM	2800 nM	1300 nM	> 9610 nM	–	–	–	–	–	–	–
O=C(c1cncc(F)c1)N1CCN(C2c3ccccc3CCc3ccccc32)CC1 [ZS-318, (5-fluoro-3-pyridyl)-[4-(2-tricyclo[9.4.0.03,8]pentadeca-1(11),3(8),4,6,12,14-hexaenyl)piperazin-1-yl]methanone]	> 39800 nM	700 nM	150 nM	> 9610 nM	–	–	–	–	–	–	–
CC(=O)Nc1cncc(C(=O)N2CC3CCC(C2)N3C(c2ccccc2)c2ccccc2)c1 [AA-633, N-(5-(8-benzhydryl-3,8-diazabicyclo[3.2.1]octane-3-carbonyl)pyridin-3-yl)acetamide]	–	–	–	2770 nM	> 39800 nM	1580 nM	640 nM	–	–	–	–
Cc1cncc(C(=O)N2CC3CCC(C2)N3C(c2cccc(F)c2)c2cccc(F)c2)c1 [AA-625, (8-(bis(3-fluorophenyl)methyl)-3,8-diazabicyclo[3.2.1]octan-3-yl)(5-methylpyridin-3-yl)methanone]	–	–	–	85 nM	26500 nM	72 nM	33 nM	72 nM	4 nM	–	–
Cc1cncc(C(=O)N2CCN(C(c3cccnc3)c3cccc(F)c3)CC2)c1 (stereo not drawn) [MKP-1290, 1-[(3-fluorophenyl)(pyridin-3-yl)methyl]-4-(5-methylpyridine-3-carbonyl)piperazine]	> 39800 nM	105 nM	96 nM	186 nM	–	–	–	–	–	105 nM	96 nM
Cc1cncc(C(=O)N2CCN(C(c3ccccc3)c3ccsc3)CC2)c1 (stereo not drawn) [MKP-1222, 1-(5-methylpyridine-3-carbonyl)-4-[phenyl(thiophen-3-yl)methyl]piperazine]	> 39800 nM	1400 nM	370 nM	1240 nM	–	–	–	–	–	–	–
